From paper PMC9554508, “ARumenamides: A novel class of potential antiarrhythmic compounds” (Frontiers in Pharmacology, 2022)

Each compound was assayed against T1, Nav1.5 (wild type; α-subunit co-transfected with the β1 subunit) (Homo sapiens, UniProt Q14524) (assay: whole-cell patch clamp, peak INa block at -20 mV, Hill fit).
T1 construct: gene SCN5A; full-length alpha subunit transiently co-transfected with beta1 subunit and eGFP (separate cDNAs) in HEK293; with Sodium channel regulatory subunit beta-1
Format: cell-based
Description: whole-cell patch clamp, peak INa block at -20 mV, Hill fit on Nav1.5 (wild type; α-subunit co-transfected with the β1 subunit)

T1 sequence (Q14524 whole entry): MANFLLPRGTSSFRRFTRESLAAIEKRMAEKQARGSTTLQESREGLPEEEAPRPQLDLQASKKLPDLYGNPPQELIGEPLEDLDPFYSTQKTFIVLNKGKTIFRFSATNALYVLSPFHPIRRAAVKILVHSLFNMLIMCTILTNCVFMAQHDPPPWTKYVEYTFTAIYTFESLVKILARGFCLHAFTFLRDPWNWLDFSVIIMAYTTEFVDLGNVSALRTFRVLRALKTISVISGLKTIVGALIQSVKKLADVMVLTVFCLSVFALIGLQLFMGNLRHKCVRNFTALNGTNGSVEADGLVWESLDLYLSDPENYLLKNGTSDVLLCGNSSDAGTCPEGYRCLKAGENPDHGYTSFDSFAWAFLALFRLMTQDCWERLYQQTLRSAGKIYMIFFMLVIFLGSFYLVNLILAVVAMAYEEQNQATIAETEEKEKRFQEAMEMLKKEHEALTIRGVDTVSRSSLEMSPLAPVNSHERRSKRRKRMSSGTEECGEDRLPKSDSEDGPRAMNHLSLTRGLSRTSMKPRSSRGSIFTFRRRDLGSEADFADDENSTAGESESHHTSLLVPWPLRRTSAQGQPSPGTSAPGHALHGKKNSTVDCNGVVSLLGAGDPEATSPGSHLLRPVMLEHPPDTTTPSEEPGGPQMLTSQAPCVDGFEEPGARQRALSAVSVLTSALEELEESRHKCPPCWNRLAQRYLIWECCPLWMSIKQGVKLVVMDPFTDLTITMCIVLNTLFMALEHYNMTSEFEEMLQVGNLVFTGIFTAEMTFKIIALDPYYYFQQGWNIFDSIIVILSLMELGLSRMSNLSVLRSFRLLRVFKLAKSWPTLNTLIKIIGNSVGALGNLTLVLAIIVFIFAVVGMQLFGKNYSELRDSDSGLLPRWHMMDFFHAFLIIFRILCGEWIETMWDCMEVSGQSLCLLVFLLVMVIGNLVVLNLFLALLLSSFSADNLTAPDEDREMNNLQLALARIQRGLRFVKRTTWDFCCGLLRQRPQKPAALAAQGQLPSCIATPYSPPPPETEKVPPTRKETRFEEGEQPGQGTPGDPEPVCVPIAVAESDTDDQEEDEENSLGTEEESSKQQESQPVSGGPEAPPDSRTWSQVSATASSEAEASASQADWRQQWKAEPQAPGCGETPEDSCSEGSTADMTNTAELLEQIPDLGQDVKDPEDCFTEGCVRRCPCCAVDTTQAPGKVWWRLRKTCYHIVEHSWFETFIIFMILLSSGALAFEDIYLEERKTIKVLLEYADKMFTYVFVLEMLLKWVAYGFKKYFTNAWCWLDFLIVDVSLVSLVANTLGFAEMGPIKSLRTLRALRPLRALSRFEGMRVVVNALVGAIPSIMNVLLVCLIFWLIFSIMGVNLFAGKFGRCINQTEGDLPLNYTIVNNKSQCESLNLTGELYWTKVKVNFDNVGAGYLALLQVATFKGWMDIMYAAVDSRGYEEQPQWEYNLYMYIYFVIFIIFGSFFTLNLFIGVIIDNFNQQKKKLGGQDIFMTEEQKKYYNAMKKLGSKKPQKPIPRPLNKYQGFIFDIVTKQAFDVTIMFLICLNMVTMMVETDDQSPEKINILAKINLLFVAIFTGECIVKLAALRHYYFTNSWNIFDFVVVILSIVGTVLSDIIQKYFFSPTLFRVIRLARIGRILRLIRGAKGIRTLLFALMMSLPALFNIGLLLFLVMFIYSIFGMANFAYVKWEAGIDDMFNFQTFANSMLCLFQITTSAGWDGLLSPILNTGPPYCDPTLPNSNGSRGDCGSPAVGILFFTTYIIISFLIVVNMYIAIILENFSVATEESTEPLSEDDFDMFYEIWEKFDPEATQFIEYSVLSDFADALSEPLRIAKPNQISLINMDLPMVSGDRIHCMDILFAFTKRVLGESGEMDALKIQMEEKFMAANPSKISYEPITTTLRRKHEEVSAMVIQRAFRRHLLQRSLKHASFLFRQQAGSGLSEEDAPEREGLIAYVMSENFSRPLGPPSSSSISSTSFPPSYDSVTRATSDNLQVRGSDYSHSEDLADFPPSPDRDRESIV
T1 sequence (Q07699 19-218 partner): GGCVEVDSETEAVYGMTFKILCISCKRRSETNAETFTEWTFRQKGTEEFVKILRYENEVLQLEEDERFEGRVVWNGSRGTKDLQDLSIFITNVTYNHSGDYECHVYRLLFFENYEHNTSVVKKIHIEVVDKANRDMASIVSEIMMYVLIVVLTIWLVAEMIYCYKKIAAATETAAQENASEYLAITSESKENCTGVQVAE

Row | Structure (SMILES) | IC50 [µM]
1 | O=C(NCc1ccco1)c1ccc2[nH]c(=O)c(=O)[nH]c2c1 [AR-051, N-(2-furylmethyl)-2,3-dioxo-quinoxaline-6-carboxamide] | 7.61
2 | CN(C)[C@@H](CNC(=O)c1ccc2[nH]c(=O)c(=O)[nH]c2c1)c1ccco1 [AR-189, N-[(2S)-2-(dimethylamino)-2-(2-furyl)ethyl]-2,3-dioxo-quinoxaline-6-carboxamide] | 12.6
3 | C=CCNS(=O)(=O)c1ccc2[nH]c(=O)[nH]c2c1 [AR-674, N-allyl-2-oxo-benzimidazole-5-sulfonamide] | 6.45
4 | COc1cccc(NS(=O)(=O)c2ccc3[nH]c(=O)[nH]c3c2)c1 [AR-802, N-(3-methoxyphenyl)-2-oxo-benzimidazole-5-sulfonamide] | 34.6
5 | CCc1ccccc1NS(=O)(=O)c1ccc2[nH]c(=O)[nH]c2c1 [AR-807, N-(2-ethylphenyl)-2-oxo-benzimidazole-5-sulfonamide] | 9.86
